Source: patent US20040029186A1, “Methods” (priority 2000, published 2004)

Biological target: T1, α4β1 integrin (Homo sapiens, UniProt P05556+P13612)
T1 construct: endogenous in cells; host or cells: cells of heparinised human whole blood
Experiment: Human whole blood cell adhesion to VCAM-1 coated magnetic beads, in vitro
Type: cell-based
Settings: 1 mM manganese chloride, 1 h room temperature, control samples without antibody
Procedure: Whole human or animal blood (e.g. rat, mouse, dog), was collected into sodium heparin (10 Units/ml blood).
487.5 μl aliquots of heparinised naive human or animal whole blood were dispensed into reaction tubes containing 7.5 μl biotinylated VCAM beads and either 5 μl of a solution of a compound believed to be an α4β1 integrin inhibitor or, as a control, 5 μl of the solvent used to dissolve the compound and either with or without 2 μl anti-α4 antibody. […]
After this time the wash procedure with chilled PBS was carried out three times before the addition of 130 μl per well of 2% Triton X-100 (Sigma T-9284) in distilled water to lyse the cells adhering to the beads. The beads were once again captured by the Dynal MPC® magnet, 100 μl aliquots of the solution from each well was transferred to a clean 96 well flat-bottomed plate and the fluorescence of each well measured using an Fmax fluorimeter (Molecular Devices, Crawley, West Sussex), excitation 485 nm, emission 538 nm. […]
The tubes were rotated on a windmill mixer for 2 h at 4° C. before addition of 500 μl ice cold PBS and placing on a Dynal MPC® magnet for 10 min to recover the beads. […] The fluorescence of each well was measured using a fluorimeter, excitation 485 nm, emission 538 nm. Results were expressed as a percentage of the fluorescence in control samples containing no antibody. […]

T1 sequence (P13612 34-1032): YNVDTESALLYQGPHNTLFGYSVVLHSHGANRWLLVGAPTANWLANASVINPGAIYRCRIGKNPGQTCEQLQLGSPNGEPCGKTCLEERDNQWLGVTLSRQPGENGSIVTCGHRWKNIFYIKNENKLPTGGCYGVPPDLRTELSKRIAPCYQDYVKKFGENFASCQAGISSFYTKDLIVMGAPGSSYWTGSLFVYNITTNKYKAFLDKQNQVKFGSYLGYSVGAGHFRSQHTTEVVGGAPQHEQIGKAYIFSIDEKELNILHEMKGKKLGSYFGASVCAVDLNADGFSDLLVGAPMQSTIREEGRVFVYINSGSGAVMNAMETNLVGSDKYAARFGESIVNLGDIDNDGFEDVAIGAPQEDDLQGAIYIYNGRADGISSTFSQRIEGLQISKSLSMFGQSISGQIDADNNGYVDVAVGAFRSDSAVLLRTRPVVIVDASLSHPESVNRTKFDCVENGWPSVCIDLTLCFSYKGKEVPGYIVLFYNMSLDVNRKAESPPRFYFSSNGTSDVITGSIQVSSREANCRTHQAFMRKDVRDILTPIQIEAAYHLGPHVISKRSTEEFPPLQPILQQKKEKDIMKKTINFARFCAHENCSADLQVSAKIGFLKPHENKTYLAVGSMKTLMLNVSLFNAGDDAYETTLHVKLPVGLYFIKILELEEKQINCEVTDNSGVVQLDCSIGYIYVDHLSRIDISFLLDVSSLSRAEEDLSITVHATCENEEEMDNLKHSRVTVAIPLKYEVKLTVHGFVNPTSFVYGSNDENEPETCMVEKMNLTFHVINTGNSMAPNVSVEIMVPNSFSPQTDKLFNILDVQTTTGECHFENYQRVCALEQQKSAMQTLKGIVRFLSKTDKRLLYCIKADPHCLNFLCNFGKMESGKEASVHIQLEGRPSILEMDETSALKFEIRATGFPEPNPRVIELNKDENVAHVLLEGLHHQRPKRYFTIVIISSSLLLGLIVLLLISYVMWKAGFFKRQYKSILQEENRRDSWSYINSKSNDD
T1 sequence (P05556 21-798): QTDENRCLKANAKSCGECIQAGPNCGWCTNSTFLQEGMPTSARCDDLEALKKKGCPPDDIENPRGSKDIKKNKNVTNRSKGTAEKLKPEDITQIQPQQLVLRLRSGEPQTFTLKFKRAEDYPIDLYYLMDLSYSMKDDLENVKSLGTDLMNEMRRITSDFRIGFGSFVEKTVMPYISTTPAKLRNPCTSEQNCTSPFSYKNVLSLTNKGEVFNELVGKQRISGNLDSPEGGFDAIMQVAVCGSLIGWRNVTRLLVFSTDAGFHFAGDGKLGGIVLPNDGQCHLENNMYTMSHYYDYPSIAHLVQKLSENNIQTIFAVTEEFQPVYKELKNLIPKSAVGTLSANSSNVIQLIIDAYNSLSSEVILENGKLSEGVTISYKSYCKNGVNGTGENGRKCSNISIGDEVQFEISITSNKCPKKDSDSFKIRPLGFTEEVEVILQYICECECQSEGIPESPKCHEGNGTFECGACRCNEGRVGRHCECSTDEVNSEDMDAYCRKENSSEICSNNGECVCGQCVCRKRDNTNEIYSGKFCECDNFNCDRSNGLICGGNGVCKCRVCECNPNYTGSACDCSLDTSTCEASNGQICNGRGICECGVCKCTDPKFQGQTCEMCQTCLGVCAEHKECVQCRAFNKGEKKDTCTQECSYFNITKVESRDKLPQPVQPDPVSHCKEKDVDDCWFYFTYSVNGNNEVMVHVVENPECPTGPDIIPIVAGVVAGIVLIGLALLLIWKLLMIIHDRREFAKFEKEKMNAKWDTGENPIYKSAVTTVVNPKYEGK

Substance: Manganese chloride [Mn^2+]
- increase of whole blood cell adhesion to VCAM-1 coated beads: approximately 2 fold
